Where a name gives a salt, the structure may show the parent alone.
Experiments:
ovariectomized rats [1] = assay: Inhibitory effect on the increase of urinary hydroxyproline excretion by ovariectomy; type: in vivo, SD strain rats; settings: Rattus norvegicus, po, 336 h; 10 mg/kg orally once a day for two weeks after ovariectomy; hydroxyproline/creatinine molar ratio in 24 hours urine; read-out: Inhibition rate of increase of the amount of urinary hydroxyproline excretion
Procedure: The inhibitory effect of the compounds of the present application on bone resorption was also determined by their inhibitory effect on the excretion of urinary hydroxyproline which is elevated by ovariectomy of the animals tested, according to the report of Kalu et al. [Bone and Mineral., 14, 175 (1991)].
Test Example 2: Inhibitory effect on the increase of urinary hydroxyproline excretion by ovariectomy
12-weeks-old female SD strain rats (Japan Clea Co., Ltd.) were acclimated for 1 week during which they were given tap water and a standard diet (F2; Funabashi Farmas) ad libitum. The experiment was carried out using the rats weighing 270-310 g. After the animals were subjected to sham operation or bilateral ovariectomy, they were allowed free access to water passed through ion exchange resin instead of tap water, and were housed in individual cages. The test compound (10 mg/kg) was suspended in 0.3% Tween or 0.5% methylcellulose, and the obtained suspension was orally administered to the ovariectomized rats once a day for two weeks starting from the day following ovariectomy (0.5 ml/100 g body weight). 0.3% Tween or 0.5% methylcellulose was similarly administered to sham-operated rats and ovariectomized control rats. After the final administration, the rats were placed in individual metabolic cages and fasted during 24 hours, and urine was collected. The volume of the collected urine was measured and the urine was centrifuged at 3,000 rpm for 15 min at 4°C. The concentration of hydroxyproline in the supernatant was measured by the method of Ikeda et al. [Ann. […] P. H., 36, 277-282 (1985)] and the concentration of creatinine in the supernatant was measured with creatinine test WAKO (Wako Pure Chem.) The amount of urinary hydroxyproline excretion was expressed by the molar ratio of the amount of hydroxyproline to the amount of creatinine. The rate of inhibition on increase of the amount of urinary hydroxyproline excretion in ovariectomized rats treated with the test compound compared to that of the control group was calculated using the following equation. Inhibition rate (%) = [(P1 - P2)/(P1 - P3)] x 100 [formula] • P1 : The amount of urinary hydroxyproline excretion in ovariectomized rats treated with 0.3% Tween (µmol/mmol). • P2 : The amount of urinary hydroxyproline excretion in ovariectomized rats treated with the test compound (µmol/mmol). • P3 : The amount of urinary hydroxyproline in sham-operated rats treated with 0.3% Tween (µmol/mmol).

PTH enhanced bone = assay: Inhibitory effect on bone absorption (calcium liberation from PTH enhanced cultured calvaria); type: cell-based, newborn dd mouse; settings: Mus musculus; calvaria culture with PTH 1 x 10^-8M, 96 hours, total calcium in the culture; test compound 3 x 10^-6M, 1 x 10^-5M, 3 x 10^-5M
Procedure: Test Example 1: Inhibitory effect on bone absorption The calvaria was excised from a newborn dd mouse (5 to 6 days old) under sterile conditions. The calvaria was washed with a modified Dulbecco phosphate buffer physiological saline solution containing neither calcium nor magnesium (a product of Gibco Oriental), and divided into two parts along the center suture. A half of the calvaria was cultivated in a modified Dulbecco Eagle medium (1.5 ml) (a product of Gibco Oriental) containing 2.5% fetal calf serum and 15% equine serum which had been inactivated by heating at 56°C for 20 minutes. The test compound was dissolved in dimethyl sulfoxide and 10 μl of the resulting solution was added to the culture medium to give the final concentrations of 3 x 10^-6M, 1 x 10^-5M, and 3 x 10^-5M. PTH (parathyroid hormone) was dissolved in a 0.15 M saline solution (pH 3) and 3 μl of the resulting solution was added to the culture medium to give the final concentration of 1 x 10^-8M. The culturing was carried out under the condition of 95% air and 5% carbon dioxide and at a temperature of 37°C for 96 hours. At 48 hours after the start of the culturing, the culture medium was renewed and the test compound and PTH treated as defined above were added thereto. For examining the effect of the test compound on calcium liberation (bone absorption) from the PTH enhanced bone, a control group, a group using PTH (1 x 10^-8M), and a group using both the test compound (3 […]) and PTH were prepared. The amount of the bone absorption was determined by measuring the amount of calcium accumulated in the culture as collected after 96 hours of culturing. The total calcium concentration in the culture was measured with Calcium C Test Wako. The inhibition rate was calculated using the following equation and the result was shown in terms of 50% inhibitory concentration (IC50). Inhibition of bone absorption from PTH enhanced bone Inhibition rate (%) = [(CP - CD )/(CP - C0 )] x 100 [formula] • C0 : The total calcium concentration in the culture containing neither the test compound nor PTH. • CP : The total calcium concentration in the culture treated with only PTH. • CD : The total calcium concentration in the culture treated with both the test compound and PTH.

ovariectomized rats [2] = assay: Inhibitory effect on decrease of bone density by ovariectomy (tibia, DEXA); type: in vivo, SD strain rats; settings: 10 mg/kg orally once a day for 6 weeks
Procedure: Test Example 3: Inhibitory effect on decrease of bone density by ovariectomy
The experiment was carried out using 13-weeks-old female SD strain rats (Japan Crea Co. Ltd.) The animals were subjected to sham operation or bilateral ovariectomy under Nembutal anesthesia. The test compound (10 mg/kg) was dissolved or suspended in 0.5% methylcellulose (Shin-Etsu Chemical Co., Ltd.) and administered orally once a day from the first day after the operation for 6 weeks. For the sham-operated group and the ovariectomized control group, 0.5% methylcellulose (Shin-Etsu Chemical Co., Ltd.) was administered orally. The rat was slaughtered by femoral artery bleeding, the right hindlimb was ablated, and then the bone mineral content (BMC) and bone density (BD) of the tibia was measured according to a DEXA (DXA) method [Japan Clinic, 52 (9), 2329-2334 (1994)] using bone mineral measuring apparatus DCS-600 (Aloka Co., Ltd.). Tibial BMC and BD in the sham-operated, ovariectomized control, and test compound-treated ovariectomized group are shown in Table 4.

SMILES | IC50 (PTH enhanced bone) [µM] | inhibition in vivo at 10 mg/kg (ovariectomized rats [1]) [%] | BD (mg/cm^2) (ovariectomized rats [2]; tibia bone density) | BMC (ovariectomized rats [2]; tibia bone mineral content) [mg]
O=C(c1c(C(c2ccccc2)c2ccccc2)c2ccccc2n1CCN1CCCC1)N1CCN(c2ccccc2Cl)CC1 [Compound 4, 2-[4-(2-Chlorophenyl)piperazinylcarbonyl]-3-(diphenylmethyl)-1-(2-pyrrolidinylethyl)indole] |  | 43 |  | 
CN(C)CCn1c(C(=O)O)c(C(c2ccccc2)c2ccccc2)c2ccccc21 [Compound 6, 1-(2-Dimethylaminoethyl)-3-(diphenylmethyl)indole-2-carboxylic acid] |  | 100 |  | 
CC(C)NC(=O)c1c(C(c2ccccc2)c2ccccc2)c2ccccc2n1CCN(C)C [Compound 8, N-Isopropyl-1-(2-dimethylaminoethyl)-3-(diphenylmethyl)indole-2-carboxamide] | 14.3 | 100 |  | 
CN(C)CCn1c(C(=O)NC2CCCCCC2)c(C(c2ccccc2)c2ccccc2)c2ccccc21 [Compound 11, N-Cycloheptyl-1-(2-dimethylaminoethyl)-3-(diphenylmethyl)indole-2-carboxamide] | 17.5 | 100 |  | 
CN(C)CCn1c(C(=O)N2CCN(Cc3ccccc3)CC2)c(C(c2ccccc2)c2ccccc2)c2ccccc21 [Compound 15, 2-(4-Benzylpiperazinylcarbonyl)-1-(2-dimethylaminoethyl)-3-(diphenylmethyl)indole] | 14.3 | 100 |  | 
CN(C)CCn1c(C(=O)NCCCN2CCCC2=O)c(C(c2ccccc2)c2ccccc2)c2ccccc21 [Compound 21, N-[3-(2-Oxopyrrolidinyl)propyl]-1-(2-dimethylaminoethyl)-3-(diphenylmethyl)indole-2-carboxamide] | 14.3 | 100 | 126.95 ± 1.78 | 268.81 ± 7.38
CN(C)CCn1c(C(=O)NCCCn2ccnc2)c(C(c2ccccc2)c2ccccc2)c2ccccc21 [Compound 22, N-[3-(1-Imidazolyl)propyl]-1-(2-dimethylaminoethyl)-3-(diphenylmethyl)indole-2-carboxamide] | 13.7 | 87 |  | 
CN(C)CCn1c(C(=O)NC2CC2)c(C(c2ccccc2)c2ccccc2)c2ccccc21 [Compound 51, N-Cyclopropyl-1-(2-dimethylaminoethyl)-3-(diphenylmethyl)indole-2-carboxamide hydrochloride] |  | 70 |  | 
O=C(NCCN1CCCCC1)c1c(C(c2ccccc2)c2ccccc2)c2ccccc2n1CCN1CCCC1 [Compound 62, N-(2-Piperidinoethyl)-3-(diphenylmethyl)-1-(2-pyrrolidinylethyl)indole-2-carboxamide 2 hydrochloride] | 18.1 | 53 |  | 
CCOC(=O)c1c(C(c2ccccc2)c2ccccc2)c2ccccc2n1CCCN(C)C [Compound 64, Ethyl 1-(3-dimethylaminopropyl)-3-(diphenylmethyl)indole-2-carboxylate] | 16.7 | 77 |  | 
CCCc1ccc(NC(=O)c2c(C(c3ccc(Cl)cc3)c3ccc(Cl)cc3)c3ccccc3n2CCN(C)C)cc1 [Compound 97, N-(4-propylphenyl)-3-[bis(4-chlorophenyl)methyl]-1-(2-dimethylaminoethyl)indole-2-carboxamide hydrochloride] | 14.3 | 40 |  | 
CCOC(=O)c1c(C(c2ccc(C)cc2)c2ccc(C)cc2)c2ccccc2n1CCN1CCCCC1 [Compound 98, Ethyl 3-[bis(4-methylphenyl)methyl]-1-(2-piperidinoethyl)indole-2-carboxylate] |  | 47 |  | 
CN(C)CCn1c(C(=O)NCCCN2CCOCC2)c(C(c2ccccc2)c2ccc(O)cc2)c2ccccc21 (centres unmarked) [Compound 121, N-(3-Morpholinopropyl)-1-(2-dimethylaminoethyl)-3-(4-hydroxybenzhydryl)indole-2-carboxamide 2 hydrochloride] |  | 59 |  | 

Continued by falling IC50 (PTH enhanced bone), values first:

IC50 (PTH enhanced bone) [µM] | SMILES | inhibition in vivo at 10 mg/kg (ovariectomized rats [1]) [%] | BD (mg/cm^2) (ovariectomized rats [2]; tibia bone density) | BMC (ovariectomized rats [2]; tibia bone mineral content) [mg]
13 | CNC(=O)c1c(C(c2ccccc2)c2ccccc2)c2ccccc2n1CCN(C)C [Compound 56, N-Methyl-1-(2-dimethylaminoethyl)-3-(diphenylmethyl)indole-2-carboxamide hydrochloride] | 57 |  | 
11.2 | CN(C)CCn1c(C(=O)N2CCOCC2)c(C(c2ccccc2)c2ccccc2)c2ccccc21 [Compound 13, 1-(2-Dimethylaminoethyl)-3-(diphenylmethyl)-2-(morpholinocarbonyl)indole] |  |  | 
10.9 | CN(C)CCn1c(C(=O)N2CCN(c3ccccc3)CC2)c(C(c2ccccc2)c2ccccc2)c2ccccc21 [Compound 14, 1-(2-Dimethylaminoethyl)-3-(diphenylmethyl)-2-(4-phenylpiperazinylcarbonyl)indole] |  |  | 
10.8 | CC(C)NC(=O)c1c(C(c2ccccc2)c2ccc(O)cc2)c2ccccc2n1CCN(C)C (centres unmarked) [Compound 119, N-Isopropyl-1-(2-dimethylaminoethyl)-3-(4-hydroxybenzhydryl)indole-2-carboxamide hydrochloride] |  |  | 
10.5 | CCCc1ccc(NC(=O)c2c(C(c3ccccc3)c3ccc(O)cc3)c3ccccc3n2CCN(C)C)cc1 (centres unmarked) [Compound 120, N-(4-Propylphenyl)-1-(2-dimethylaminoethyl)-3-(4-hydroxybenzhydryl)indole-2-carboxamide hydrochloride] |  |  | 
9.1 | CN(C)CCn1c(C(=O)N2CCCCC2)c(C(c2ccccc2)c2ccccc2)c2ccccc21 [Compound 10, 1-(2-Dimethylaminoethyl)-3-(diphenylmethyl)-2-(piperidinocarbonyl)indole] |  |  | 
3.7 | CN(C)CCn1c(C(=O)NCCCN2CCOCC2)c(C(c2ccccc2)c2ccccc2)c2ccccc21 [Compound 20, N-(3-Morpholinopropyl)-1-(2-dimethylaminoethyl)-3-(diphenylmethyl)indole-2-carboxamide] | 100 |  | 
